Reference: patent publication US20030224390A1, “Method of identifying conformation-sensitive binding peptides and uses thereof” (Karo Bio AB, priority 2000, published 2003)

T1: androgen receptor (Homo sapiens, UniProt P10275)
T1 sequence (P10275 1-920): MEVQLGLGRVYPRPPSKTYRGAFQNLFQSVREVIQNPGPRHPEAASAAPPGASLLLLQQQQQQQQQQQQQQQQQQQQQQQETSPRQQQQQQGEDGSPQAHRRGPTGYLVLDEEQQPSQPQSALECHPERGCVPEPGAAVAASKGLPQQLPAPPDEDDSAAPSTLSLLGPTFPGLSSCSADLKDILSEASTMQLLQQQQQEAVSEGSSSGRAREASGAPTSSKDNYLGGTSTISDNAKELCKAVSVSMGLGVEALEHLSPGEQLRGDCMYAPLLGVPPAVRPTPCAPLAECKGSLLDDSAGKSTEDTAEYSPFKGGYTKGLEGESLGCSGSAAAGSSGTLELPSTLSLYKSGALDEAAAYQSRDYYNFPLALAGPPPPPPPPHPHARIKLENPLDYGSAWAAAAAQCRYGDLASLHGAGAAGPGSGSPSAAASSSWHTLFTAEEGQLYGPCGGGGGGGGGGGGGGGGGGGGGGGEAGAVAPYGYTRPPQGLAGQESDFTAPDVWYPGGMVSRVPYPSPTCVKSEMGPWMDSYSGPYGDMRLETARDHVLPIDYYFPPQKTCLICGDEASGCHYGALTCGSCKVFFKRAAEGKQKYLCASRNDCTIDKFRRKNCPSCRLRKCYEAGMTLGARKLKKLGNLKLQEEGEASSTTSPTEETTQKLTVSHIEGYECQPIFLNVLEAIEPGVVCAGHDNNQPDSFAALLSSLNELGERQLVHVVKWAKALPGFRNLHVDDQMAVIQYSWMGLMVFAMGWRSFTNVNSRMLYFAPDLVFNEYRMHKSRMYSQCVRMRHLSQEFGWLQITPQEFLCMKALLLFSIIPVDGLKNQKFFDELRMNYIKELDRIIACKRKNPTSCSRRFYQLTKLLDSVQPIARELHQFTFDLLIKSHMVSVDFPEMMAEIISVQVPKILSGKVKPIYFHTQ

T2: Gal4 transcriptional activation domain (AD) fused in frame with AR (pGAD-C2) (yeast), P10275
T2 chain: T1 sequence (P10275 1-920)

T3: pVP16-AR (VP16 activation domain fused to androgen receptor), P10275
T3 chain: T1 sequence (P10275 1-920)

B1: B5G11, P04386 1-147 (peptide)
chain: MKLLSSIEQACDICRLKKLKCSKEKPKCAKCLKNNWECRYSPKTKRSPLTRAHLTEVESRLERLEQLFLLIFPREDLDMILKMDSLQDIKALLTGLFVQDNVNKDAVTDRLASVETDMPLTLRQHRISATSSSEESSNKGQRQLTVSEFRSSVFEQMYLCTGGSLDLQPS
modifications: not checked

Legend:
ERβ = ERβ (Homo sapiens, UniProt Q92731); assay: Binding of the peptide probes to ERβ in the presence of modulators (Table 15b)
Sequence of ERβ (Q92731 whole entry, species assumed): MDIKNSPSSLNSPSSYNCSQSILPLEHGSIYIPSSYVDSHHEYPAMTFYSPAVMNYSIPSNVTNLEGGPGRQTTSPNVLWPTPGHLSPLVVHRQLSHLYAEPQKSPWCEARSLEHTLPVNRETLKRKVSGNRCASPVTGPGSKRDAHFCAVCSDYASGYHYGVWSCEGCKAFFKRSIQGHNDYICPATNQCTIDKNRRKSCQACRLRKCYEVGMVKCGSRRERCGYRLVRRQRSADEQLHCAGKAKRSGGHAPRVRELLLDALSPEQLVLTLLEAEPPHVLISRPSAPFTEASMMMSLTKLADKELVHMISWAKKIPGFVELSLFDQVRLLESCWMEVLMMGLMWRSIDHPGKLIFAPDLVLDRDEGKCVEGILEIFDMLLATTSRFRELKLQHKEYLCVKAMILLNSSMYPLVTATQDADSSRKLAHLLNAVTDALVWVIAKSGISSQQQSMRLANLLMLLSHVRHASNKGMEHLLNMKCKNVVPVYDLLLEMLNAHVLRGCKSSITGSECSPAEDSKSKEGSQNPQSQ

androgen receptor [1] = molecular target: T1, androgen receptor; assay: Yeast two-hybrid screening of unbiased X15 peptide library, ligand induced β-galactosidase activity (FIG. 3, Table 503); format: cell-based; set-up: expressed in transfected cells; host or cells: Saccharomyces cerevisiae PJ69-4α; ligand induced β-galactosidase activity, No Lig / ligand induced β-galactosidase activity, DHT / ligand induced β-galactosidase activity, CPA / ligand induced β-galactosidase activity, RU / ligand induced β-galactosidase activity, Test / ligand induced β-galactosidase activity, MPA: unit not given here; settings: for Fold induction: untitled table before Table 503, values match DHT / No Lig of Table 503
Description: Our library contained predominantly 15 random amino acid residues/peptide in order to identify motifs that might interact with nuclear receptor domains. If ligand is provided to the cells, one can screen for peptides that interact with the ligand-bound receptor. […] Included at the ends of the oligonucleotide were the synthetic restriction endonuclease cleavage sites, EcoRI or Mfe I (5′ end) and Sal I (3′ end). Oligonucleotides were annealed, then cleaved with excess restriction endonuclease and purified on agarose gels. The purified set of oligonucleotides was subcloned as an in-frame carboxy-terminal fusion to a Gal4 DNA binding domain (plasmid vector pMA424 derivative). […] The transformation mix was divided and grown on plates of selective media containing ligand and 25 mM 3-aminotriazole at 30° C. until colonies appeared in 3-7 days. […] Dihydrotestosterone (DHT) and medroxyprogesterone (MPA) were added to the media at 100 nM to identify peptides that interact with the receptor in the presence of ligand. After colonies appeared they were picked and dispersed into individual wells of a 96-well plate containing rich media (YPD).
To determine ligand dependence, two microliter aliquots were removed from the cell suspension, and arrayed and spotted onto each of two rectangular agar plates, one with 100 nM ligand and one without ligand. Growth was monitored daily.
A secondary test of ligand dependent activation was performed using the integrated GAL4-driven lacZ gene. Cell suspensions of the initial positive clones were diluted 20-fold into 20 microliters of rich media in a microplate and grown overnight at 30° C. in the presence and absence of ligand. Microplates were centrifuged for 5 minutes at 3000 rpm in a swinging table top centrifuge to pellet the yeast cells, and the overlying media was aspirated. […] An OD650 density determination was made to normalize the β-galactosidase activity. β-galactosidase activity was monitored following the addition of buffer containing chlorophenol red-β-galactopyranoside (CPRG) (Boehringer Mannheim) substrate at a final concentration of 0.5 mM. […] The maximum slope value of this measurement was normalized to cell density from the initial OD650 value, and the relative ligand dependence of β-galactosidase was determined by comparing the values plus and minus ligand.
In FIG. 3, all of these ligands were tested. The plasmids from true positives were extracted using standard yeast extraction protocols and re-transformed to verify the positive phenotype.

androgen receptor [2] = molecular target: T1, androgen receptor; format: cell-based; set-up: expressed in transfected cells
Description: We used a mammalian two-hybrid system to determine specificities of the AR-binding peptides previously identified, through screening of the aforementioned yeast library, as ligand-dependent in their binding activity. Ligand was provided to the cells so the interaction could be observed. The human hepatoma cell line, Huh-7, was used as the recipient of two-hybrid vectors, pM and pVP16 (Clontech) (FIGS. 6A and 6B), containing fusions with peptide and AR, respectively. According to Clontech literature, the Clontech vectors pM and VP16 generate fusions of protein X with the GAL4 DNA-BD and fusions of protein Y with the VP16AD, in the Mammalian MM Two-Hybrid Assay Kit (#K1602-1). (Note: pM and VP16 contain unique cloning sites in the same order and reading frame as the DNA-BD and AD, respectively, vectors in the yeast […] Two-Hybrid Systems.) A third vector, pG5CAT, provides a CAT reporter gene under the control of a GAL4-responsive element and minimal promoter of the adenovirus E1b. The three vectors are cotransfected into any suitable mammalian host cell line by standard methods. The interaction between proteins X and Y is then assayed by measuring CAT gene expression by any standard method. In the absence of activation (i.e., no protein-protein interaction), the minimal E1b promoter will not express significant levels of CAT.
Briefly, cells are seeded in a 24-well culture plate to a density of 50-80% confluence in phenol red-free media containing charcoal-dextran stripped fetal bovine serum (10%). Following incubation overnight, cells are transfected with plasmids pM-peptide, pVP16-AR, pCMV-b-gal, and p5XGAL-Luc3 DNAs using lipofectamine 2000 (LifeTech) according to the manufacturer's protocol. Transfections are allowed to proceed for 6 hours and the transfection media is aspirated and replaced with recovery media for 18 hours. Following the recovery period, cells are treated with compound for 24 hours prior to cell harvesting. Cells are washed with PBS and then lysed using the lysis buffer from the Galacto-Light Plus β-galactosidase assay kit (Tropix). Assays for luciferase and β-galactosidase were performed as described by the manufacturer. Peptide/AR interactions are described in terms of the luciferase activity normalized for transfection efficiency using β-galactosidase activity (see FIG. 4A). Two types of useful information arose from these methods: 1) we generated a panel of useful peptide probes to analyze the conformational state of AR, and 2) we “fingerprinted” AR modulators with respect to AR conformation (FIG. 4B). […] FIG. 4B is the converse of 4A. It compares the ability of six ligands (DHT, MPA, CYP, RU486, FLUT and DHEAs to interact with AR in the presence of each of four peptides (D30, 5G11, B8H3 and […]). Thus, it is a “fingerprint” of each of the six ligands using a four peptide panel. (Note that “1269” and D30” refer to the same peptide.)

[3] = molecular target: T2, Gal4 transcriptional activation domain …; assay: cell-based or functional assay
[4] = molecular target: T3, pVP16-AR (VP16 activation domain fused …); assay: cell-based or functional assay

Molecule	Equiv. (equivalency), peptide probe α/βIII on ERβ (ERβ)	Equiv. (equivalency), peptide probe α/βIV on ERβ (ERβ)	Equiv. (equivalency), peptide probe α/βV on ERβ (ERβ)	Equiv. (equivalency), peptide probe βI on ERβ (ERβ)	Equiv. (equivalency), peptide probe βIII on ERβ (ERβ)	ligand induced β-galactosidase activity, CPA (androgen receptor [1]; yeast two-hybrid)	ligand induced β-galactosidase activity, DHT (androgen receptor [1]; yeast two-hybrid)	ligand induced β-galactosidase activity, RU (androgen receptor [1]; yeast two-hybrid)	ligand induced β-galactosidase activity, No Lig (androgen receptor [1]; yeast two-hybrid)	Fold induction (androgen receptor [1])	other results
C[C@]12CC[C@@H]3c4ccc(O)cc4CC[C@H]3[C@@H]1C[C@@H](O)[C@@H]2O [Estriol]	−57%	−75%	0%	−96%	77%						Equiv. (equivalency), peptide probe α/βI on ERβ (ERβ; probe α/βI, positive: % of maximum stimulation by the modulator used to isolate the probe, negative: % of reduction by ICI 182,780): 81%
EFPELLAMTRWGRHAALLEPQRLPPPRTTTQPQTEFERMFFFTRPMRTTGLLDLQPS [B2A7]						0.2919	1.719	0.5	0.3711		
CCN(CC)CCOc1ccc(C(=C(Cl)c2ccccc2)c2ccccc2)cc1 [Clomiphene]	34%	0%	13%	−62%	−61%						
EFHSRLRVEVVSWGIGSTCSQANSGRISYDL* [B8H3]						0.3927	3.807	−0.0	0.1737	22	luciferase normalized to β-galactosidase, CYP. (androgen receptor [2]): 10.47; luciferase normalized to β-galactosidase, DHT (androgen receptor [2]; mammalian two-hybrid, Huh-7 cells, ligand DHT): 11.6; luciferase normalized to β-galactosidase, MPA (androgen receptor [2]; mammalian two-hybrid, Huh-7 cells, ligand MPA): 11.33; luciferase normalized to β-galactosidase, RU486 (androgen receptor [2]; mammalian two-hybrid, Huh-7 cells, ligand RU486): 3.879; luciferase normalized to β-galactosidase, no compound (androgen receptor [2]; mammalian two-hybrid, Huh-7 cells, no compound): 0.1316
EFRQSFVSEILGGGWLPLDLOPS [M2H3]						8.592	24.12	6.8	2.53	10	ligand induced β-galactosidase activity, MPA (androgen receptor [1]; yeast two-hybrid, ligand MPA): 19.25; ligand induced β-galactosidase activity, Test (androgen receptor [1]; yeast two-hybrid, ligand Test): 26.57
B1											Fold induction, yeast two-hybrid [3]: 6 fold; β-galactosidase activity, yeast two-hybrid; CPA [3]: 0.973; β-galactosidase activity, yeast two-hybrid; DHT [3]: 3.96; β-galactosidase activity, yeast two-hybrid; No Lig [3]: 0.638; β-galactosidase activity, yeast two-hybrid; RU [3]: 0.9; normalized luciferase activity, mammalian two-hybrid; CYP. [4]: 4.46; normalized luciferase activity, mammalian two-hybrid; DHT [4]: 15.8; normalized luciferase activity, mammalian two-hybrid; MPA [4]: 8.03; normalized luciferase activity, mammalian two-hybrid; RU486 [4]: 0.105; normalized luciferase activity, mammalian two-hybrid; no compound [4]: 0.0503
